ChEMBL document CHEMBL1201862, “PubChem BioAssay data set” (2004)
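1) Cells in 96-well plates. 2) Compound, 48 h, 5 concentrations. 3) Linear interpolation between surrounding doses. 4) Unreached endpoint = highest concentration. Abbreviation: GI50, concentration required for 50% inhibition of growth.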 Activity calls are given as the source filed them. Rule as the data show it: active = GI50 up to about 1.1 µM and inactive = higher.

Key:
Assay in all cases: NCI anticancer screen, dose series, 48 h
NCI-H23 = test system: NCI-H23
Hs-578T = test system: Hs-578T
TK-10 = test system: TK-10
SR = test system: SR
SF-295 = test system: SF-295
SN12C = test system: SN12C
COLO 205 = test system: COLO 205
IGROV-1 = test system: IGROV-1
MDA-MB-231 = test system: MDA-MB-231
MOLT-4 = test system: MOLT-4
U-251 = test system: U-251
NCI-H460 = test system: NCI-H460
OVCAR-4 = test system: OVCAR-4
M14 = test system: M14
NCI/ADR-RES = test system: NCI/ADR-RES
ACHN = test system: ACHN
HOP-92 = test system: HOP-92
SW-620 = test system: SW-620
SF-539 = test system: SF-539

Row | SMILES | GI50 (NCI-H23) | GI50 (Hs-578T) | GI50 (TK-10) | GI50 (SR) | GI50 (SF-295) | GI50 (SN12C) | GI50 (COLO 205) | GI50 (IGROV-1) | GI50 (MDA-MB-231) | GI50 (MOLT-4) | GI50 (U-251) | GI50 (NCI-H460) | GI50 (OVCAR-4) | GI50 (M14) | GI50 (NCI/ADR-RES) | GI50 (ACHN) | GI50 (HOP-92) | GI50 (SW-620) | GI50 (SF-539)
1 | O=C1Nc2ccccc2/C1=N/NC(=S)N1CCCC1 | 3.01 µM (inactive) | 2.13 µM (inactive) | 8.26 µM (inactive) | 0.291 µM (active) | 0.662 µM (active) | 1.91 µM (inactive) | 1.44 µM (inactive) | 1.87 µM (inactive) | 6.58 µM (inactive) | 0.193 µM (active) | 0.867 µM (active) | 0.499 µM (active) | 1.01 µM (active) | 1.56 µM (inactive) | 0.361 µM (active) | 0.64 µM (active) | 8.38 µM (inactive) | 0.766 µM (active) | 1.08 µM (active)
2 | CC(C)=CCC[C@@H](C)C1=C(N)C(=O)C(C)=C(O)C1=O | 42.7 µM (inactive) | 34.9 µM (inactive) | 53.1 µM (inactive) | 26.3 µM (inactive) | 32.1 µM (inactive) | 45.8 µM (inactive) | 29.2 µM (inactive) | 29.9 µM (inactive) | 67.5 µM (inactive) | 19.5 µM (inactive) | 31.8 µM (inactive) | 33.7 µM (inactive) | 35.7 µM (inactive) | 38.7 µM (inactive) | 8.28 µM (inactive) | 18.8 µM (inactive) | 57.4 µM (inactive) | 41.3 µM (inactive) | 41.7 µM (inactive)
3 | Cc1noc2nnn(-c3ccc(Cl)cc3)c(=O)c12 | 4.75 µM (inactive) | 18.6 µM (inactive) | 9.06 µM (inactive) | 1.21 µM (inactive) | 12.3 µM (inactive) | 3.89 µM (inactive) | 2.96 µM (inactive) | 5.33 µM (inactive) | 8.95 µM (inactive) | 0.364 µM (active) | 4.92 µM (inactive) | 6.43 µM (inactive) | 3.18 µM (inactive) | 11.8 µM (inactive) | 4.17 µM (inactive) | 3.59 µM (inactive) | 6.4 µM (inactive) | 0.67 µM (active) | 0.223 µM (active)
4 | C[n+]1c(/C=C/c2ccc(O)c3ncccc23)[se]c2ccccc21 | 4.05 µM (inactive) | 15.7 µM (inactive) | 3.1 µM (inactive) | 1.64 µM (inactive) | 8.57 µM (inactive) | 2.99 µM (inactive) | 5.58 µM (inactive) | 3 µM (inactive) | 0.406 µM (active) | 1.94 µM (inactive) | 2.88 µM (inactive) | 2.51 µM (inactive) | 4.2 µM (inactive) | 4.67 µM (inactive) | 3.48 µM (inactive) | 1.92 µM (inactive) | 4.22 µM (inactive) | 3.98 µM (inactive) | 2.86 µM (inactive)
5 | Cc1ccc(-c2cc(-c3cc(-c4ccc(C)cc4C)[nH]n3)[nH]n2)c(C)c1 | 19.8 µM (inactive) | 18.1 µM (inactive) | 15.6 µM (inactive) | 10.2 µM (inactive) | 13.1 µM (inactive) | 15.3 µM (inactive) | 12.7 µM (inactive) | 13.7 µM (inactive) | 16.2 µM (inactive) | 10.1 µM (inactive) | 13.5 µM (inactive) | 7.93 µM (inactive) | 8.71 µM (inactive) | 15.8 µM (inactive) | 18.9 µM (inactive) | 11.5 µM (inactive) | 18.9 µM (inactive) | 11.8 µM (inactive) | 17 µM (inactive)
6 | O/N=C1/COC(C(F)(F)F)(C(F)(F)F)C1 | > 100 µM (inactive) | > 100 µM (inactive) | > 100 µM (inactive) | 0.0573 µM (active) | > 100 µM (inactive) | > 100 µM (inactive) | > 100 µM (inactive) | > 100 µM (inactive) | > 100 µM (inactive) | > 100 µM (inactive) | > 100 µM (inactive) | > 100 µM (inactive) | > 100 µM (inactive) | > 100 µM (inactive) | > 100 µM (inactive) | > 100 µM (inactive) | > 100 µM (inactive) | > 100 µM (inactive) | > 100 µM (inactive)
7 | CC1(COS(=O)(=O)OCC2(C)COS(=O)(=O)OC2)COS(=O)(=O)OC1 | > 25.8 µM (inactive) | > 100 µM (inactive) | > 74.8 µM (inactive) | > 24.9 µM (inactive) | > 100 µM (inactive) |  | > 51.6 µM (inactive) | 39.2 µM (inactive) | > 73.6 µM (inactive) |  | > 38.1 µM (inactive) | > 42.3 µM (inactive) | > 60.8 µM (inactive) | > 51.4 µM (inactive) | > 48.3 µM (inactive) | > 32.3 µM (inactive) | 10.3 µM (inactive) | > 55.2 µM (inactive) | > 100 µM (inactive)
8 | Cn1cc(NC(=O)Nc2cc(C(=O)Nc3cc(C(=O)Nc4ccc5cc(S(=O)(=O)O)cc(S(=O)(=O)O)c5c4)n(C)c3)n(C)c2)cc1C(=O)Nc1cc(C(=O)Nc2ccc3cc(S(=O)(=O)O)cc(S(=O)(=O)O)c3c2)n(C)c1 | > 100 µM (inactive) | > 100 µM (inactive) | 83 µM (inactive) | > 100 µM (inactive) | > 100 µM (inactive) | > 100 µM (inactive) | > 100 µM (inactive) | > 100 µM (inactive) | > 100 µM (inactive) | > 100 µM (inactive) | > 100 µM (inactive) | > 100 µM (inactive) | > 100 µM (inactive) | 91.4 µM (inactive) | > 100 µM (inactive) | > 100 µM (inactive) | 90.8 µM (inactive) | > 100 µM (inactive) | > 100 µM (inactive)
9 | O=C1CCCn2c(nc3ccccc32)N1 | > 100 µM (inactive) | > 100 µM (inactive) | > 100 µM (inactive) | > 100 µM (inactive) | > 100 µM (inactive) |  | > 100 µM (inactive) | > 100 µM (inactive) | > 100 µM (inactive) | > 100 µM (inactive) | > 100 µM (inactive) | > 100 µM (inactive) | > 100 µM (inactive) | > 100 µM (inactive) | > 100 µM (inactive) | > 100 µM (inactive) | > 100 µM (inactive) | > 100 µM (inactive) | > 100 µM (inactive)
10 | Cc1ccc(S(=O)(=O)N2CCN(S(=O)(=O)c3ccc(C)cc3)CCN(S(=O)(=O)c3ccc(C)cc3)Cc3cc(C#N)c(C#N)cc3CN(S(=O)(=O)c3ccc(C)cc3)CC2)cc1 | > 100 µM (inactive) | > 100 µM (inactive) | 86.7 µM (inactive) | > 100 µM (inactive) | > 100 µM (inactive) | > 100 µM (inactive) | > 100 µM (inactive) | > 100 µM (inactive) | 31 µM (inactive) | > 100 µM (inactive) | > 100 µM (inactive) | > 100 µM (inactive) | > 100 µM (inactive) | 25.8 µM (inactive) | > 100 µM (inactive) | > 100 µM (inactive) | 25.3 µM (inactive) | > 100 µM (inactive) | > 100 µM (inactive)
11 | NCCCN1CCN(CC(=O)O)CCN(CCCN)CCN(CC(=O)O)CC1 | > 100 µM (inactive) | > 100 µM (inactive) | > 100 µM (inactive) | > 26.9 µM (inactive) | > 93.3 µM (inactive) | > 100 µM (inactive) | 33.7 µM (inactive) | 43.9 µM (inactive) | > 100 µM (inactive) | 7.14 µM (inactive) | > 100 µM (inactive) | 6.75 µM (inactive) | > 100 µM (inactive) | 82.6 µM (inactive) | > 100 µM (inactive) | > 100 µM (inactive) | > 100 µM (inactive) | 9.91 µM (inactive) | 68.1 µM (inactive)
12 | CC(C)=C1C(=O)C[C@]2(C)C[C@H]3/C(=C(/C)CCC12)CC[C@@]3(C)O (stereo partly drawn) | > 50 µM (inactive) | > 50 µM (inactive) | > 50 µM (inactive) | 20.7 µM (inactive) | > 50 µM (inactive) | > 50 µM (inactive) | 45 µM (inactive) | > 50 µM (inactive) | > 50 µM (inactive) | 14.9 µM (inactive) | > 50 µM (inactive) |  | > 50 µM (inactive) | > 50 µM (inactive) | > 50 µM (inactive) | > 50 µM (inactive) | > 50 µM (inactive) | > 50 µM (inactive) | > 50 µM (inactive)
13 | O=C(Nc1ccccc1)N(C1=NCC(CI)S1)c1ccc(F)cc1F (stereo not drawn) | 50.6 µM (inactive) | > 100 µM (inactive) | 82.8 µM (inactive) | 12.2 µM (inactive) | > 100 µM (inactive) | 46.7 µM (inactive) | 46 µM (inactive) | 20.9 µM (inactive) | 20.2 µM (inactive) | 21.6 µM (inactive) | > 100 µM (inactive) |  | 43.6 µM (inactive) | 79.1 µM (inactive) | > 100 µM (inactive) | > 100 µM (inactive) | 13.8 µM (inactive) | 62.1 µM (inactive) | 59.3 µM (inactive)
14 | Cc1c(-c2ccccc2)c(C#N)c2nnn(-c3ccccc3)c(=O)n12 | > 100 µM (inactive) | > 100 µM (inactive) | > 100 µM (inactive) | 33.8 µM (inactive) | 43.7 µM (inactive) | > 100 µM (inactive) | 54.1 µM (inactive) | > 100 µM (inactive) | > 100 µM (inactive) |  | 48.8 µM (inactive) | 64.6 µM (inactive) | > 100 µM (inactive) | 67.1 µM (inactive) | > 100 µM (inactive) | 76.4 µM (inactive) | > 100 µM (inactive) | > 100 µM (inactive) | > 100 µM (inactive)
15 | CC(C)C1OCC(CO)CO1 (stereo not drawn) | > 100 µM (inactive) | > 100 µM (inactive) | > 100 µM (inactive) | > 100 µM (inactive) | > 100 µM (inactive) | > 100 µM (inactive) | > 100 µM (inactive) |  | > 100 µM (inactive) | > 100 µM (inactive) | > 100 µM (inactive) | > 100 µM (inactive) | > 100 µM (inactive) | > 100 µM (inactive) | > 100 µM (inactive) | > 100 µM (inactive) | > 100 µM (inactive) | > 100 µM (inactive) | > 100 µM (inactive)
